Measured values: ChEMBL document CHEMBL1139661, “Arylaminoethyl amides as noncovalent inhibitors of cathepsin S. Part 2: Optimization of P1 and N-aryl” (Bioorg Med Chem Lett, 2006)

What was measured:
Type in all cases: ADME, organism-based
[1] = (§1) Half life in Wistar rat at 10 mg/kg; parameters: dose 10 mg/kg; conditions: Wistar, in vivo
[2] = AUC in Wistar rat at 10 mg/kg, po; parameters: dose 10 mg/kg, route oral; conditions: plasma
[3] = Cmax in Wistar rat at 10 mg/kg, po; parameters: dose 10 mg/kg, route oral; conditions: in vivo
[4] = Oral bioavailability in Wistar rat at 10 mg/kg, po; conditions: in vivo
Rattus norvegicus = assay: as §1; parameters: dose 10 mg/kg; conditions: in vivo

Structure (SMILES)	half-life [1]	AUC [2]	Cmax [3]	bioavailability [4]	T1/2 (Rattus norvegicus)
COc1cccc(C(=O)N[C@@H](CC(C)(C)C)C(=O)N[C@@H](CC(=O)O)CN2CCc3cc(F)ccc32)c1	33.6 min	100 ng·h/mL	45 nM	2%	–
CCOC(=O)C[C@@H](CN1CCc2cc(F)ccc21)NC(=O)[C@H](CCC1CCCCC1)NC(=O)c1cccc(OC)c1	–	308 ng·h/mL	293 nM	8%	Not Active
